Patent US12546707B2, “Validation of natural matrices for therapeutic use” (priority 2024, dated 2026)

Tested on: primary human chondrocytes (HC) exposed to IL1B
Experiment: In vitro cell assay representative of osteoarthritis (transcriptomics, IPA Z-score of biological functions)
Assay type: cell-based
Conditions: chondrocytes with IL1B 5 ng/ml, vs pathological state control
Experimental: Each time one of the batch solutions was added, fresh IL1B [5 ng/ml] was also added to the medium. The time schedule used for experimental setting is as follows: [table] At the end of described treatment periods, cells were washed with 100 μl PBS and lysed and collected in RLT buffer (Qiagen, 1053393) added with β-mercaptoethanol (Sigma, M3148) and DX reagent (Qiagen, 19088) for gene expression analysis experiments. Total RNA was extracted from cells lysates using an QIAsymphony RNA Kit (Qiagen,) with the QIAsymphony SP instrument (Qiagen). The quality and quantity of RNA was determined by A230, A260, A280 and A320 measurements on VarioskanTM LUX multimode microplate reader (Thermo ScientificTM). Integrity of RNA was checked using a 2100 expert_Eukaryote Total RNA Nano Kit (Agilent). Whole transcriptome expression profile was evaluated using a Human ClariomTM S Pico Assay HT (Applied Biosystems, ThermoFisher Scientific) on a GeneTitan MC Instrument (Applied Biosystems, ThermoFisher Scientific), following the manufacturer's instructions. […] Arrays were washed, stained and then scanned using the GeneTitan MC Instrument (Applied Biosystems, ThermoFisher Scientific) and CEL Intensity files were generated by Affymetrix GeneChip Command Console Software (AGCC, ThermoFisher Scientific). […] Ingenuity Pathways Analysis (IPA) (QIAGEN \Inc., https://www.qiagenbioinformatics.com/products/ingenuitypathway-analysis) was used, for each investigated batch to evaluate modulations of gene expression relevant for effects of interest. The patho-physiological features of state-of-the-art “Osteoarthritis condition” were considered with particular attention to the following areas involved: [table] This knowledge was used to interrogate IPA via the “IPA Bioprofiler” tool, using the following key words: osteoarthritis, arthropathy, formation of cartilage tissue, destruction of cartilage tissue, damage of cartilage, connective tissue disorder, inflammation of joint, immune cell trafficking, oxidative stress and hyaluronic acid. The use of “IPA Bioprofiler” allowed to identify clusters of expressed genes causally linked to each of the identified biological functions and the specific molecular pathway underpinning them. […] Modulation of expressed genes were shown in different intensities of blue (signifying down-modulation) or red (signifying up-modulation). The resulting expected calculated impact, based on the literature, on the related biofunctions was determined by “IPA Molecule Activity Predictor” tool (MAP) and resumed in a heatmap visualization. The colour and intensity thereof were transformed into numerical values.

[1] = hallmark Protection from anatomical damage

CC1(C)O[C@@H]2C[C@H]3[C@@H]4CCC5=CC(=O)C=C[C@]5(C)[C@@]4(F)[C@@H](O)C[C@]3(C)[C@]2(C(=O)CO)O1 [Triamcinolone acetonide, Triamcinolone Acetonide]
Z-score values: Skeletal and muscular system development and function → articular dysfunction → joint space → Formation of cartilage tissue (hallmark Induction of proliferation): −0.31
Z-score values: Organismal injury and abnormalities → joint inflammation and swelling, difficulty moving a joint → Osteoarthritis [1]: −0.15
Z-score values: Skeletal and muscular system function → difficulty moving a joint → Non-traumatic arthropathy [1]: −0.17
Z-score values: Inflammatory disease → inflammation and nociceptions → Inflammation of joint (hallmark Reduction of inflammation): −0.26
